Measurements taken from US20040063725A1, “Novel n(phenylsulphonyl)glycine derivatives and their therapeutic use” (priority 2001, published 2004).
Where a name gives a salt, the structure may show the parent alone.

Test system: formaldehyde-induced pain
Assay: formaldehyde-induced pain test in the mouse (formalin test)
Format: in vivo
Conditions: formaldehyde 0.92% in paw, licking time 15 to 30 min
Method: The compounds of the present invention were evaluated for their analgesic property in the formaldehyde-induced pain test in the mouse (Shibata, M., Ohkubo, T., Takahashi, H. & R. Inoki. Modified formalin test: characteristic biphasic pain response. Pain, 38. 347-352). In summary, an administration of formaldehyde (0.92% in physiological serum) is made in the front paw and the licking time, which reflects the intensity of the pain, is recorded from 0 to 5 min (1st phase) and from 15 to 30 min (2nd phase) after the injection. The percentage inhibition of the second phase of licking induced by the formaldehyde is given, for some compounds according to the invention, in the following Table: […]

Compound | % inhibition of the 2nd licking phase (10 mg/kg s.c.) | % inhibition of the 2nd licking phase (30 mg/kg s.c.) | further results
Cc1c(Cl)ccc(S(=O)(=O)N(CCc2ccccc2)CC(=O)NCC(=O)N(CCC2CCNCC2)Cc2ccc(C(=N)N)cc2)c1Cl.O=C(O)C(F)(F)F.O=C(O)C(F)(F)F [Example 24, N-[2-[[[4-(aminoiminomethyl)phenyl]methyl](4-piperidinylethyl)amino]-2-oxoethyl]-2-[[(2,4-dichloro-3-methylphenyl)sulphonyl](2-phenylethyl)-amino]acetamide, bis Trifluoroacetate] | 76% |  | 
N-[2-[[[4-(aminoiminomethyl)phenyl]methyl][3-(dimethylamin)propyl]amino]-2-oxoethyl]-2-[[(2,4-dichloro-3-methylphenyl)sulphonyl](2-phenylethyl)amino]acetamide, Dihydrochloride [Example 23] |  | 98% | 
Cc1c(Cl)ccc(S(=O)(=O)N(CCc2ccccc2)CC(=O)NCC(=O)N(CCCCN2CCCC2)CCCc2cnc[nH]2)c1Cl [Example 82, 2-[[(2,4-dichloro-3-methylphenyl)sulphonyl](2-phenylethyl)amino]-N-[2-[[3-(1H-imidazol-5-yl)propyl][4-(1-pyrrolidinyl)butyl]amino]-2-oxo-ethyl]acetamide, Dihydrochloride] |  |  | % inhibition of the 2nd licking phase (10 mg/kg i.p.): 63%
N-[2-[(4-aminobutyl)(4-piperidinylmethyl)amino]-2-oxoethyl]-2-[[(2,4-dichloro-3-methylphenyl)sulphonyl](2-phenylethyl)amino]acetamide, Bis Trifluoroacetate [Example 25] |  | 87% | 
Cc1c(Cl)ccc(S(=O)(=O)N(CCc2ccccc2)CC(=O)NCC(=O)N(CCCN(C)C)Cc2ccc(C3=NCCN3)cc2)c1Cl [Example 35, 2-[[(2,4-dichloro-3-methylphenyl)sulphonyl](2-phenylethyl)amino]-N-[2-[[[4-(4,5-dihydro-1H-imidazol-2-yl)phenyl]methyl][3-(dimethylamino)propyl]amino]-2-oxoethyl]acetamide, Dihydrochloride] | 92% |  | 
